Reference: patent US20170335304A1, “OXIDIZED PROTEIN HYDROLASE ACTIVITY ENHANCING AGENT AND GLYCATION STRESS INHIBITOR” (ARKRAY, Inc., priority 2016, published 2017)

Tests used:
Assay type in all cases: biochemical
[1] = target: AGEs modified bovine serum albumin (AGE-BSA) cross-linked to collagen (Bos taurus, UniProt P02769); experiment: AGEs Cross-Link Breaking Effect Confirmatory Test (Test 2); conditions: cross-link breaking reaction at 37° C. for 18 hours; punicalagin 5 mmol/L
Protocol: The test was carried out according to the description in Sara Vasan et al. (Nature, 382, pp275-278 (1996)).
300 μL/well of SuperBlock T20 (PBS) Blocking Buffer was added to a commercially available 96-well microplate precoated with collagen, which then was reacted at 37° C. for one hour. After the reaction, it was washed with 0.05% polyethylene (20) sorbitan monolaurate (Tween 20)/PBS(-), and then AGEs modified bovine serum albumin (AGE-BSA) was added to each well of the microplate, which then was subjected to a crosslinking reaction at 37° C. for four hours. After the reaction, it was washed with Tween 20/PBS(-). Thereafter, a plant extract was added to each well and thereby it was subjected to a cross-link breaking (cleaving) reaction at 37° C. for 18 hours. After that, it was washed with Tween 20/PBS(-) and a primary antibody (anti-albumin bovine serum rabbit-polyclonal) was added thereto, which then was reacted at room temperature for 30 minutes. […] As a reaction stop solution, 1N HCl was added thereto, and the absorbance at 450 nm (dominant wavelength)/630 nm (complementary wavelength) was measured with a microplate reader. The amount of AGE-BSA that remained was determined from a calibration curve in which the amount of AGE-BSA was varied. Furthermore, the AGE-BSA decomposition rate (Collagen cross-link decomposition rate)was determined using the following formula. […]

[2] = target: T1, Acylamino-acid releasing enzyme (AARE) (OPH) (Sus scrofa, UniProt P19205); experiment: OPH Activation Confirmatory Test (Test 2); conditions: sample solution 5 mg/ml; 24 hours at 37° C.; relative to Ref without sample; n=3
T1 construct: purchased Takara Bio Inc
T1 sequence (P19205 1-732): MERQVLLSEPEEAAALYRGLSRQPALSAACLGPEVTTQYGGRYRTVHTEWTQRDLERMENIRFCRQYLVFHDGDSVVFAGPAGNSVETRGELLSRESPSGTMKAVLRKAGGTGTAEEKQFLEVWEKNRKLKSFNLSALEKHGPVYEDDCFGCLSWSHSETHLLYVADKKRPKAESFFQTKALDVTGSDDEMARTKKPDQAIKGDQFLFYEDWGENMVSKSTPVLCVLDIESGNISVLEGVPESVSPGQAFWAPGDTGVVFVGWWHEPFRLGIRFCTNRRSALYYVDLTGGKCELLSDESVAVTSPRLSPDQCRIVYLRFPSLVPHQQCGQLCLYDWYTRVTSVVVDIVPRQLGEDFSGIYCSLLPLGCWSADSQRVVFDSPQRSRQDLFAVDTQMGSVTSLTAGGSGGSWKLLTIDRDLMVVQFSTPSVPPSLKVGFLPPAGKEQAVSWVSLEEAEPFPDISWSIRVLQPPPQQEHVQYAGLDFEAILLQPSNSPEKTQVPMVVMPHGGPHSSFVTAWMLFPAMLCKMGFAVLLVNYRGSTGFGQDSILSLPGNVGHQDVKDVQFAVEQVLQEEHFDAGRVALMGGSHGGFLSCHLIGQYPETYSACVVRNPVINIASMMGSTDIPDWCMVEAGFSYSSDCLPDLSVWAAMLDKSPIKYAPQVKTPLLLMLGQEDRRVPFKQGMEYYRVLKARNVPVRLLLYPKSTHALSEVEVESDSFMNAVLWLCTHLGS
Protocol: To each plant indicated in Table 3 below, 15 times its amount of water was added and it was extracted at 100° C. for 30 minutes and then was solid-liquid separated and condensed. Thereafter, it was sterilized at 100° C. or higher for 30 minutes or less, which then was spray-dried. Thus, plant extract powders were obtained.
Each plant extract powder mentioned above was diluted with distilled water so as to be 5 mg/ml, which then was used as a sample solution. […]
The OPH Solution, the AAPA solution, and the sample solution (5 mg/mi) were mixed together to be added to each well of a 96-well microplate and then were reacted for 24 hours in an incubator set at 37° C. The absorbance at 405 nm of each reaction solution was measured with a microplate reader.
The enzyme activity of the OPH was determined as variation in absorbance (reaction rate) per hour (the OPH reaction rate of the sample). On the other hand, as a reference (Ref), the same measurement was carried out without adding the sample solution and then the reaction rate was determined (the OPH reaction rate of Ref). Using the OPH reaction rate of the sample and the OPH reaction rate of Ref, the OPH activation rate (%) was calculated from the following formula (n=3). […]

[3] = AGEs Cross-link Breaking Effect Confirmatory Test (Test 1); conditions: 10 mmol/L PPD, pH 7.4, 37° C., eight hours; n=3; PTB 10 mmol/L
Protocol: The test was carried out according to the description in […] al. (Nature, 382, pp275-278 (1996)). […] A plant extract, 10 mmol/L of PPD, and 0.2 mol/L of phosphate buffer solution (pH 7.4) were mixed together at a ratio of 5:1:4 and then were reacted at 37° C. for eight hours (n=3). After completion of the reaction, hydrochloric acid was added thereto to stop the reaction and thus a reaction solution was obtained. […] The amount of benzoic acid contained in the reaction solution was determined by subtracting the amount of benzoic acid contained in the plant extract, which was measured separately. Since 1 mol of PPD produces 1 mol of benzoic acid, the cross-link breaking rate was calculated by the following formula. Cross-link breaking rate (%)={(A-B)/C}×100 • A: The amount of benzoic acid contained in the reaction solution • B: The amount of benzoic acid contained in the plant extract • C: The amount of PPD provided for the reaction (the amount of the substrate) As a control, a test was carried out using 10 mmol/L of PTB instead of the plant extract.

[4] = AGEs Cross-Link Breaking Effect Confirmatory Test (Test 3); conditions: same measurement as Test 1, mixture solid content 7.42 mg/mL
Protocol: A plant extract, 10 mmol/L of PPD, and 0.2 mol/L of phosphate buffer solution (pH 7.4) were mixed together at a ratio of 5:1:4 and then were reacted at 37° C. for eight hours (n=3). After completion of the reaction, hydrochloric acid was added thereto to stop the reaction and thus a reaction solution was obtained. […] The amount of benzoic acid contained in the reaction solution was determined by subtracting the amount of benzoic acid contained in the plant extract, which was measured separately. Since 1 mol of PPD produces 1 mol of benzoic acid, the cross-link breaking rate was calculated by the following formula. Cross-link breaking rate (%)={(A−B)/C}×100 • A: The amount of benzoic acid contained in the reaction solution • B: The amount of benzoic acid contained in the plant extract • C: The amount of PPD provided for the reaction (the amount of the substrate) As a control, a test was carried out using 10 mmol/L of PTB instead of the plant extract. The same measurement as in the AGEs cross-link breaking effect confirmatory test (Test 1) was carried out except for using a mixture of plant extracts indicated in Table 6 below.

Sequence of AGEs modified bovine serum albumin (AGE-BSA) cross-linked to collagen (P02769 25-607): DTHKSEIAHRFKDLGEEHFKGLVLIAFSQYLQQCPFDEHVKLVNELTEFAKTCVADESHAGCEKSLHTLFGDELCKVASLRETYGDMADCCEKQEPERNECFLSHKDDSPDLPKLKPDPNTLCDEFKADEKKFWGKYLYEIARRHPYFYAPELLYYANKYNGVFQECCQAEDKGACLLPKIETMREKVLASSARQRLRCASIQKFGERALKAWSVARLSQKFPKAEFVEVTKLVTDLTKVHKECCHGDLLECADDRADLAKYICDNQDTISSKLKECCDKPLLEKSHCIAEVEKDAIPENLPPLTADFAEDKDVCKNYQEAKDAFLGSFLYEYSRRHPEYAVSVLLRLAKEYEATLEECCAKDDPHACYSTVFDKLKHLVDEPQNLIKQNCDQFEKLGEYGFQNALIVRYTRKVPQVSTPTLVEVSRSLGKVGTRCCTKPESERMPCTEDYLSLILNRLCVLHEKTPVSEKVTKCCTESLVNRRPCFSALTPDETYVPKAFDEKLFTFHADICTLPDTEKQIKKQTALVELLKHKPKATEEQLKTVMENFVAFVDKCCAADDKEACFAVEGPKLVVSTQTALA

O=C1O[C@H]2[C@@H]3OC(=O)c4cc(O)c(O)c(O)c4-c4c(O)c(O)c5oc(=O)c6c(c(O)c(O)c7oc(=O)c4c5c76)-c4c(cc(O)c(O)c4O)C(=O)OC[C@H]3OC(O)[C@@H]2OC(=O)c2cc(O)c(O)c(O)c2-c2c1cc(O)c(O)c2O (mixture of isomers) [Punicalagin]
Amount of Remaining AGE-BSA [1]: 343.3 ng | Collagen Cross-Link Decomposition Rate (%) [1]: 65.7%

O=C(O[C@@H]1Cc2c(O)cc(O)cc2O[C@@H]1c1cc(O)c(O)c(O)c1)c1cc(O)c(O)c(O)c1 [EGCg, Epigallocatechin gallate]
OPH Activation Rate (%) (Mean Value ± Standard Deviation) [2]: 15.5 ± 3.2%

O=C(C[n+]1ccsc1)c1ccccc1.[Br-] [PTB, N-phenacylthiazolium bromide]
Cross-Link Breaking Rate (%) (Mean Value ± Standard Deviation) [3]: 20.47 ± 0.29% | Cross-Link Breaking Rate (%) (Mean Value ± Standard Deviation) [4]: 25.34 ± 0.19%
